Where “and” joins values, the source holds several entries; their conditions need not be identical. Identical values can stand only once.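 Growth conditions: 96-well plates. Treatment: test compound, 48 hours, 5 concentrations. Analysis: linear interpolation between bracketing concentrations; unreached endpoints set to highest concentration. Here, GI50 denotes the concentration required for 50% inhibition of growth. TGI is the concentration that stops growth completely.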
Assays:
Test in all cases: inhibition of tumour cell growth, NCI panel, 48 h
NCI/ADR-RES ovarian = tested on: NCI/ADR-RES ovarian
NCI-H460 lung = tested on: NCI-H460 lung
SF-295 CNS = tested on: SF-295 CNS
MOLT-4 leukemia = tested on: MOLT-4 leukemia
MDA-MB-435 = tested on: MDA-MB-435
COLO 205 colon = tested on: COLO 205 colon
A549 NSCLC = tested on: A549 NSCLC
IGROV1 ovarian = tested on: IGROV1 ovarian
MCF7 breast = tested on: MCF7 breast
OVCAR-4 ovarian = tested on: OVCAR-4 ovarian

SMILES	TGI (NCI/ADR-RES ovarian) [µM]	TGI (NCI-H460 lung) [µM]	TGI (SF-295 CNS) [µM]	TGI (MOLT-4 leukemia) [µM]	TGI (MDA-MB-435) [µM]	TGI (COLO 205 colon) [µM]	TGI (A549 NSCLC)	TGI (IGROV1 ovarian)	TGI (MCF7 breast) [µM]	TGI (OVCAR-4 ovarian) [µM]	GI50 (MOLT-4 leukemia) [µM]	GI50 (COLO 205 colon) [nM]	GI50 (NCI/ADR-RES ovarian) [nM]	GI50 (SF-295 CNS) [nM]	GI50 (IGROV1 ovarian) [nM]	GI50 (MCF7 breast) [nM]	GI50 (OVCAR-4 ovarian) [nM]	GI50 (NCI-H460 lung) [nM]	GI50 (MDA-MB-435) [nM]
O=C(O)c1c(CC(Cc2ccc3c(c2)CCCC3)C(=O)O)ccc2c1CCCC2 (stereo unspecified)	> 100	> 100	> 100	> 100	> 100	> 100	> 100 µM	> 100 µM											
COc1cccc(NCC(=O)Nn2c(-c3ccccc3)nc3ccccc3c2=O)c1	> 100	> 100	> 100	> 100	> 100	> 100	> 100 µM	> 100 µM	> 100	> 100									
O=[N+]([O-])c1ccc(NC2OCC(O)C(O)C2O)cc1 (stereo unspecified)		> 100	> 100	> 100		> 100	> 100 µM	> 100 µM		> 100									
NC(=O)N/N=C(\Cc1nc2ccc(C(=O)c3ccccc3)cc2[nH]c1=O)C(=O)Nc1ccc(Br)cc1		> 100	> 100	> 100			> 100 µM	> 100 µM		> 100									
Oc1cc(Cl)cc2cc(Br)cnc12	> 54.5	> 57.7	> 45.4	6.96	> 100	> 100	> 42.6 µM	> 94.1 µM	> 29.9	> 100									
N#Cc1c(=O)c2cc([N+](=O)[O-])ccc2n2c1[nH]c1ccccc12	> 56.4	> 89.2	> 52.2	> 76.1	> 79.9	> 44.4	> 100 µM	> 83.7 µM	> 86.5	> 100									
OC1C(O)C(O)C(O)C(O)C1O (stereo unspecified)	> 1000	> 1000		916	> 1000	> 1000	> 1000 µM	> 1000 µM	> 1000	> 1000									
O=c1ccc2ccccc2o1		> 100	> 100	> 100		> 100	> 100 µM	> 100 µM		> 100									
Cc1cc(N(CCC#N)CCC#N)ccc1/C=C(\NC(=O)/C=C/c1ccccc1)NC(=O)Nc1ccc(Cl)cc1		> 100	> 100	> 100		> 100	> 100 µM	> 100 µM		> 100									
O=c1c2cc(Br)ccc2oc2nc3n(c(=O)c12)CCCS3	> 100	> 100	> 100	> 100	> 100	> 100	> 100 µM	> 100 µM	> 100	> 100									
OC(c1cccs1)c1cc2ccccc2s1 (stereo unspecified)	> 10	> 10	> 10	> 10	> 10	> 10	> 10 µM	> 10 µM	> 10	> 10									
CC(C)CCCC(C)[C@H]1CC[C@H]2[C@@H]3CC[C@H]4C[C@@H](CCC=C(c5cc(Cl)c(O)c(C(=O)OC(C)(C)C)c5)c5cc(Cl)c(O)c(C(=O)OC(C)(C)C)c5)CC[C@]4(C)[C@H]3CC[C@]12C (stereo partly specified)	> 50		> 50	> 50	> 50	> 50	> 50 µM	> 50 µM	> 50	> 50									
Clc1ccc(OCc2nnc3sc(-c4ccc(-c5ccc(Cl)cc5Cl)o4)nn23)c(Cl)c1	45.1	55.2	33.6	41.3	> 100	73.7	46.8 µM	35.2 µM	> 100	> 100									
CC(C)(C)c1cc(-c2ccc(-c3cc(C(C)(C)C)c(O)c(C(C)(C)C)c3)cc2)cc(C(C)(C)C)c1O	> 100		> 100	> 100	> 100	> 100	> 100 µM	> 100 µM	> 100	> 100									
C=C1CC/C=C(/C(=O)O)CC[C@H]2[C@@H]1CC2(C)C		> 100	> 100	> 100	> 100	> 100	> 100 µM	> 100 µM	> 100	> 100									
OCCCSc1ccccc1SCCCO	> 100	> 100	> 100	> 100	> 100	> 100	> 100 µM	> 100 µM	> 100	> 100									
O=S(=O)(O)CCS	> 100	> 100	> 100	> 100	> 100	> 100	> 100 µM	> 100 µM	> 100	> 100									
OCCSCCCSCCO	> 100	> 100	> 100	> 100		> 100	> 100 µM	> 100 µM	> 100	> 100									
Oc1ccc2c(c1)OCC(O)(c1ccccc1O)C2 (stereo unspecified)	> 100	> 100	> 100	> 100	> 100	> 100		> 100 µM	> 100	> 100									
O=C(CSc1nnc(Cc2ccccc2)o1)Nc1ccc(Cl)cc1		> 100	> 100	> 100		> 100	> 100 µM	> 100 µM		> 100									
Oc1ccc(-c2nc3cc(C(F)(F)F)ccc3n2CC2CCCN3CCCCC23)cc1 (stereo unspecified)	32.9	28.3	28.4	33.5	26.3			26 µM	25.2	31.2									
COc1ccc(C(=O)N2CCN(c3ccc4c(c3)OCC(=O)N4)CC2)cc1	> 100	> 100	> 100	> 100	> 100	> 100	> 100 µM	> 100 µM	> 100	> 100									
COC1=CC(=O)C(O)=C(C[C@@]2(C)[C@@H]3CCC[C@H](COC(=O)CCCCCNC(=O)OC(C)(C)C)[C@@]3(C)CC[C@@H]2C)C1=O			> 10	> 10	> 10	> 10	> 10 µM	> 10 µM	> 10	> 10									
CCSc1nc2sc(C)c(C)c2c(=O)n1-c1ccc(C(=O)O)cc1		> 100	> 100	> 100		> 100	> 100 µM	> 100 µM		> 100									

SMILES	TGI (NCI/ADR-RES ovarian) [µM]	TGI (NCI-H460 lung) [µM]	TGI (SF-295 CNS) [µM]	TGI (MOLT-4 leukemia) [µM]	TGI (MDA-MB-435) [µM]	TGI (COLO 205 colon) [µM]	TGI (A549 NSCLC)	TGI (IGROV1 ovarian)	TGI (MCF7 breast) [µM]	TGI (OVCAR-4 ovarian) [µM]	GI50 (MOLT-4 leukemia) [µM]	GI50 (COLO 205 colon) [nM]	GI50 (NCI/ADR-RES ovarian) [nM]	GI50 (SF-295 CNS) [nM]	GI50 (IGROV1 ovarian) [nM]	GI50 (MCF7 breast) [nM]	GI50 (OVCAR-4 ovarian) [nM]	GI50 (NCI-H460 lung) [nM]	GI50 (MDA-MB-435) [nM]
Cc1cc2c(c3oc(C(O)(CO)C4CO4)cc(=O)c13)C(=O)c1c(O)cccc1C2=O (stereo unspecified)		0.00012	0.00094	> 37.5	0.0052	0.00115	0.0139 µM and 0.0213 µM and 0.0606 µM	0.0019 µM and 0.00294 µM			> 37.5	0.1							
CN(C)C(=O)CC(C(=O)O)c1c[nH]c2ccccc12 (stereo unspecified)		> 100	> 100	> 100		> 100	> 100 µM	> 100 µM		> 100									
CCOC(OCC)C(CC)[Se]c1ccccc1[N+](=O)[O-] (stereo unspecified)		18.6	> 22.9	> 86.7		8.92	> 63.3 µM	> 100 µM		> 100									
CCCCCCOc1ccc(NC2=C(Cl)C(=O)c3cccnc3C2=O)cc1		3.8	> 10	> 10	3.62		4.25 µM	3.62 µM	2.65										
CC(C)(C)NC(NC(C)(C)C)=C(C(Cl)=C(Cl)Cl)[N+](=O)[O-]	> 100	> 100	> 100	> 100		> 100	> 100 µM	> 100 µM	> 100	> 100									
Cn1c(C(C#N)c2cc(Cl)ncn2)nc2ccccc21 (stereo unspecified)	> 100	> 100	> 100	> 100	> 100	> 100	> 100 µM	> 100 µM		> 100									
C/C(Cl)=N\OC(=O)Nc1ccccc1C(F)(F)F	47.5	> 100	> 100	47.9		43.6	> 100 µM	> 100 µM	61.5	26.9									
Cc1ccc(/C=C2\NC(=S)N(CN3CCOCC3)C2=O)cc1	> 100		> 100	> 100	> 100	> 100	> 100 µM	> 100 µM	> 100	> 100									
CCCCCCCCCCCCCCCCCCNc1ccn(C2OC(COP(=O)(O)O)C(O)C2O)c(=O)n1 (stereo unspecified)	> 100		> 100	> 100	> 100	> 100	> 100 µM	> 100 µM	> 100	> 100									
C=C1C(=O)OC2/C=C(\C)C(O)CC(O)C(C)(O)CC(OC(=O)/C(C)=C/C)C12 (stereo unspecified)		> 100	> 100	> 100	> 100	> 100	> 100 µM	> 100 µM	> 100	> 100									
CN(C)c1ccc(/C=C/c2sc3ccc4ccccc4c3[n+]2C)cc1	> 100		2.32					1.66 µM					2810	395	368				
CN1CCN(CC(=O)Nc2ccc3ncnc(Nc4ccc(Oc5cccc(C(F)(F)F)c5)c(Cl)c4)c3c2)CC1		3.29	3.31		2.97				3	3.02				1810		1480	1510	1740	1580
O=C1CC(Br)c2c(Cl)sc(Cl)c21 (stereo unspecified)	90.1	34.8	30.2	5.54	7.38	28.6	45.4 µM	24.7 µM	13.8										
c1ccc2nc3[nH]c4ccccc4c3cc2c1	8.28	1.46	2.24	1.36	1.97	1.53	9.14 µM	2.57 µM		2.79									
O=C1CN(c2ccc(Cl)cc2)C(=O)CN1CCN1CC(=O)N(c2ccc(Cl)cc2)CC1=O		> 100	> 100	> 100	> 100	> 100	> 100 µM	> 100 µM	> 100	> 100									
CN1N=C2c3ccccc3CC[C@H]2C1c1ccccc1 (stereo partly specified)		> 100	> 100	> 100		> 100	> 100 µM	> 100 µM		> 100									
CCc1cccc(C(C)C)c1NC(=O)C(=O)C(C(=O)C(=O)OC)c1nc2ccccc2[nH]c1=O (stereo unspecified)		> 100	> 100	> 100		> 100	> 100 µM	> 100 µM		> 100									
NC(=O)c1n[nH]n(-c2ccccc2)c1=O	> 100	> 100	> 100	> 100	> 100	> 100	> 100 µM	> 100 µM	> 100										
COc1cc(/C=C2\N=C(c3ccccc3)N(C3Nc4cc5c(cc4S3)NC(N3C(=O)/C(=C/c4cc(OC)c(OC)c(OC)c4)N=C3c3ccccc3)S5)C2=O)cc(OC)c1OC (stereo unspecified)	> 100	> 100	> 100	> 100	> 100		> 100 µM	> 100 µM	> 100	> 100									
CCN1/C(=C/c2ccc3ccccc3[n+]2CC)C=Cc2ccccc21	88.9	4.95	10.5	> 33.9	1.67		17.1 µM	16.4 µM	13.1	19.8									
CO/N=C1\CCC2(O)C3Cc4ccc(O)c5c4C2(CCN3CC2CC2)[C@H]1O5 (stereo partly specified)	> 100		> 100	> 100	> 100	> 100	> 100 µM	> 100 µM	> 100	> 100									
COC1(OC)N=C(N)C2(C#N)C(C)CC(=O)N(N(C)C)C12C#N (stereo unspecified)	> 100		> 100	> 100	> 100	> 100	> 100 µM	> 100 µM	> 100										
Cc1cc(Cc2cc(C)c(NC(=O)C(=O)C3C(=O)NC(=S)NC3=O)c(C(C)C)c2)cc(C(C)C)c1NC(=O)C(=O)C1C(=O)NC(=S)NC1=O		> 100	> 100	> 100		> 100	> 100 µM	> 100 µM		> 100									
